Source: publication PMC4385830, “Group I Paks as therapeutic targets in NF2-deficient meningioma” (Oncotarget, 2015)

Key:
KT21 cells = experiment: Apoptosis, Annexin V positive cells by flow cytometry; assay type: cell-based; conditions: 3 days, vs DMSO
Procedure: For detection of apoptosis, subconfluent cells were plated in 60-mm plate and treated with inhibitors for 3 days. Cells were collected, washed and resuspended in 1x binding buffer with Annexin V-EGFP and propidium iodide (BioVision, CA) and incubated at room temperature for 5 min in dark. Apoptosis was measured using FACS with collecting 10,000 events per sample.

[1] = tested on: KT21-MG1-Luc5D intracranial xenografts; experiment: Orthotopic meningioma model, bioluminescence imaging; conditions: SCID mice; oral gavage 90 mg/kg/day; 2 weeks; BLI
Text: Eight-week-old SCID mice were anesthetized with ketamine and their heads were stabilized in a small animal stereotaxic instrument. A midline sagittal incision was made on the cranial skin. A burr hole was drilled in the skull with coordinated 1.5 mm anterior and 1.5 mm lateral to the right from the bregma and a 5-μl Hamilton syringe loaded with cells was slowly inserted through the burr hole and ~0.5 mm downward to the skull base. The incision was closed using surgical absorbable gut suture.
Mice transplanted with meningioma cells were imaged using Xenogen IVIS Spectrum (Caliper, MA). Mice were injected intraperitoneally with Rediject D-Luciferin Ultra at 150 mg/kg under anesthetized with isofluorane. Luciferase activity was measured and all bioluminescence imaging was conducted when perk signal was reached. Once tumors were established (~3 weeks post-transplantation), mice were divided into groups for shRNA studies or drug treatments.
For drugs treatment, mice were dosed with Pak inhibitors daily for 14–21 days and tumor growth was monitored every week by BLI. Mean luminescence for each treatment groups (n = 5) was calculated as described previously.

Malignant MN525 = experiment: Cell viability, MTT assay; assay type: cell-based; conditions: NF2+/+, 72 hrs
Procedure: (§1) Cells were plated at 3 × 10^3 cells per well in 96-well plates overnight and treated with various concentrations of Pak inhibitors for 72 hours. Cell viability was measured by MTT assay and the half maximal inhibitory concentration (IC50) was calculated.

Benign Ben-Men-1 = experiment: Cell viability, MTT assay; assay type: cell-based; conditions: for IC50: NF2−/−, 72 hrs, MTT; for effect on growth of cells: Ben-Men, 3 days, GSK690693 effect only at high doses
Procedure: as §1

Benign MN328 = experiment: Cell viability, MTT assay; assay type: cell-based; conditions: NF2+/+, 72 hrs
Procedure: as §1

Malignant KT21-MG1 = experiment: Cell viability, MTT assay; assay type: cell-based; conditions: for IC50: NF2−/−, 72 hrs, MTT; for effect on growth of cells: KT21, 3 days, GSK690693 effect only at high doses
Procedure: as §1

Arachnoid cell AC07 = experiment: Cell viability, MTT assay; assay type: cell-based; conditions: NF2+/+, 72 hrs
Procedure: as §1

Ben-Men cells = experiment: Immunoblot of signaling pathways; assay type: cell-based
Procedure: (§2) Protein concentration was determined, and equal amount of total proteins were separated by SDS-PAGE. […] GAPDH and β-actin were used as loading control.

KT21 or Ben-Men cells = experiment: Immunoblot of signaling pathways; assay type: cell-based
Procedure: as §2

Structure (SMILES) | number of apoptotic cells (KT21 cells) | impaired KT21 tumor growth compared to vehicle cohort [1] [%] | IC50 (Malignant MN525) [µM] | IC50 (Benign Ben-Men-1) [µM] | IC50 (Benign MN328) [µM] | IC50 (Malignant KT21-MG1) [µM] | IC50 (Arachnoid cell AC07) [µM] | basal level (expression) of β-catenin (Ben-Men cells) | phosphorylation of β-catenin (Ben-Men cells) | phosphorylation of Pak and Mek1 (at Ser298) (KT21 or Ben-Men cells; inhibitors at IC50 concentration) | effect on growth of cells (Benign Ben-Men-1) | effect on growth of cells (Malignant KT21-MG1) | Pak activity (KT21 or Ben-Men cells; immunoblot)
CCn1c(=O)c(-c2ccc(-c3cncs3)cc2Cl)cc2cnc(Nc3ccc(N4CCN(C)CC4)cc3)nc21 [Frax597] | substantial increase | 50 | 1.59 | 0.393 | 2.81 | 2.93 | 1.18 | did not impact | diminished | dramatically inhibited | – | – | –
O=C(NOC[C@H](O)CO)c1ccc(F)c(F)c1Nc1ccc(I)cc1F [PD325901] | – | – | > 20 | > 20 | > 20 | > 7 | > 20 | – | – | – | no effect | no effect | –
CCn1c(-c2nonc2N)nc2c(C#CC(C)(C)O)ncc(OC[C@H]3CCCNC3)c21 [GSK690693] | – | – | > 20 | 3.27 | > 20 | 4.24 | > 20 | – | – | – | impeded the growth | impeded the growth | –
Oc1ccc2ccccc2c1SSc1c(O)ccc2ccccc12 [IPA3, reference compound] | – | – | – | – | – | – | – | induction | – | – | – | – | paradoxical stimulation
